This assay deals with MV-4-11 cells. Description: Gene expression microarray analysis (Affymetrix PrimeView) and GSEA. It is filed as cell-based, human. More on the design: RFU PODN (11730768_x_at) / Fold change /veh PODN (11730768_x_at) / RFU LINC00158 (11744669_a_at) / Fold change /veh LINC00158 (11744669_a_at) / RFU DUSP10 (11751237_a_at) / Fold change /veh DUSP10 (11751237_a_at) / RFU ID3 (11757404_x_at) / Fold change /veh ID3 (11757404_x_at) / RFU PLEKHG5 (11737974_s_at) / Fold change /veh PLEKHG5 (11737974_s_at) / RFU LRRC4B (11730491_at) / Fold change /veh LRRC4B (11730491_at) / RFU GIMAP4 (11747438_a_at) / Fold change /veh GIMAP4 (11747438_a_at) / RFU KRT8 (11758183_x_at) / Fold change /veh KRT8 (11758183_x_at) / RFU CNN1 (11734310_a_at) / Fold change /veh CNN1 (11734310_a_at) / RFU VPS37D (11726825_at) / Fold change /veh VPS37D (11726825_at) / RFU C10orf10 (11716522_x_at) / Fold change /veh C10orf10 (11716522_x_at) / RFU KIR2DL2 /// KIR2DL4 /// KIR2DL5A /// KIR2DL5B /// KIR2DS1 /// KIR2DS2 /// KIR2DS3 /// KIR2DS4 /// KIR3DL3 /// KIR3DL3 /// KIR3DS1 (11738374_at) / Fold change /veh KIR2DL2 /// KIR2DL4 /// KIR2DL5A /// KIR2DL5B /// KIR2DS1 /// KIR2DS2 /// KIR2DS3 /// KIR2DS4 /// KIR3DL3 /// KIR3DL3 /// KIR3DS1 (11738374_at) / RFU C1QL1 (11718748_at) / Fold change /veh C1QL1 (11718748_at) / RFU TMPRSS4 (11747572_a_at) / Fold change /veh TMPRSS4 (11747572_a_at) / RFU HAMP (11756126_x_at) / Fold change /veh HAMP (11756126_x_at) / RFU RNFT2 (11725882_a_at) / Fold change /veh RNFT2 (11725882_a_at) / RFU NR4A2 (11747474_a_at) / Fold change /veh NR4A2 (11747474_a_at) / RFU ABCC12 (11746883_a_at) / Fold change /veh ABCC12 (11746883_a_at) / RFU TMEM136 (11760407_x_at) / Fold change /veh TMEM136 (11760407_x_at) / RFU CLDN22 /// WWC2 (11732394_at) / Fold change /veh CLDN22 /// WWC2 (11732394_at) / RFU HLA-DPB1 (11760878_x_at) / Fold change /veh HLA-DPB1 (11760878_x_at) / RFU SPINT1 (11716480_a_at) / Fold change /veh SPINT1 (11716480_a_at) / RFU GAP43 (11754022_s_at) / Fold change /veh GAP43 (11754022_s_at) / RFU A4GNT (11735810_at) / Fold change /veh A4GNT (11735810_at) / RFU PRB3 (11715151_x_at) / Fold change /veh PRB3 (11715151_x_at) / RFU TUBB4B (11761932_at) / Fold change /veh TUBB4B (11761932_at) / RFU CAPN14 (11732068_a_at) / Fold change /veh CAPN14 (11732068_a_at) / RFU TMCC2 (11721928_a_at) / Fold change /veh TMCC2 (11721928_a_at) / RFU IRGQ (11745062_a_at) / Fold change /veh IRGQ (11745062_a_at) / RFU FAM174B (11720279_a_at) / Fold change /veh FAM174B (11720279_a_at) / RFU TMPRSS4 (11748680_a_at) / Fold change /veh TMPRSS4 (11748680_a_at) / RFU FAM212B (11763350_a_at) / Fold change /veh FAM212B (11763350_a_at) / RFU PLEKHG5 (11743358_a_at) / Fold change /veh PLEKHG5 (11743358_a_at) / RFU ZSCAN30 (11745921_a_at) / Fold change /veh ZSCAN30 (11745921_a_at) / RFU CMKLR1 (11741424_a_at) / Fold change /veh CMKLR1 (11741424_a_at) / RFU LOC101060620 /// MAPK8IP1 (11723275_at) / Fold change /veh LOC101060620 /// MAPK8IP1 (11723275_at) / RFU SPTSSB (11747773_x_at) / Fold change /veh SPTSSB (11747773_x_at) / RFU PRSS12 (11739890_at) / Fold change /veh PRSS12 (11739890_at) / RFU BIN1 (11741810_x_at) / Fold change /veh BIN1 (11741810_x_at) / RFU WNT11 (11732464_a_at) / Fold change /veh WNT11 (11732464_a_at) / RFU C10orf10 (11716521_a_at) / Fold change /veh C10orf10 (11716521_a_at) / RFU C5orf56 (11738089_at) / Fold change /veh C5orf56 (11738089_at) / RFU CYB561 (11721691_x_at) / Fold change /veh CYB561 (11721691_x_at) / RFU ANKRD19P (11752326_a_at) / Fold change /veh ANKRD19P (11752326_a_at) / RFU OR2T12 /// OR2T33 /// OR2T8 (11738714_s_at) / Fold change /veh OR2T12 /// OR2T33 /// OR2T8 (11738714_s_at) / RFU VCAN (11748164_a_at) / Fold change /veh VCAN (11748164_a_at) / RFU JSRP1 (11732532_at) / Fold change /veh JSRP1 (11732532_at) / RFU KRTAP10-11 (11738290_x_at) / Fold change /veh KRTAP10-11 (11738290_x_at) / RFU MYO3A (11730013_a_at) / Fold change /veh MYO3A (11730013_a_at) / RFU EBF3 (11725865_a_at) / Fold change /veh EBF3 (11725865_a_at) / RFU CAMK2N1 (11719241_x_at) / Fold change /veh CAMK2N1 (11719241_x_at) / RFU C5orf56 (11738088_a_at) / Fold change /veh C5orf56 (11738088_a_at) / RFU OLFML3 (11715873_a_at) / Fold change /veh OLFML3 (11715873_a_at) / RFU LOC100653217 /// NTM (11731650_a_at) / Fold change /veh LOC100653217 /// NTM (11731650_a_at) / RFU MAPK11 (11762145_a_at) / Fold change /veh MAPK11 (11762145_a_at) / RFU FIZ1 (11724087_x_at) / Fold change /veh FIZ1 (11724087_x_at) / RFU OASL (11726364_x_at) / Fold change /veh OASL (11726364_x_at) / RFU SOX15 (11748057_x_at) / Fold change /veh SOX15 (11748057_x_at) / RFU CD79A (11719716_a_at) / Fold change /veh CD79A (11719716_a_at) / RFU HIST1H1D (11736915_at) / Fold change /veh HIST1H1D (11736915_at) / RFU CASKIN2 (11723855_a_at) / Fold change /veh CASKIN2 (11723855_a_at) / RFU LOC730098 (11760151_x_at) / Fold change /veh LOC730098 (11760151_x_at) / RFU OR4N2 (11742367_at) / Fold change /veh OR4N2 (11742367_at) / RFU PRRT2 (11749266_a_at) / Fold change /veh PRRT2 (11749266_a_at) / RFU SNX32 (11753110_a_at) / Fold change /veh SNX32 (11753110_a_at) / RFU CDHR5 (11726645_a_at) / Fold change /veh CDHR5 (11726645_a_at) / RFU RCAN1 (11760418_a_at) / Fold change /veh RCAN1 (11760418_a_at) / RFU FAM167A (11723789_a_at) / Fold change /veh FAM167A (11723789_a_at) / RFU FAM26E (11764081_at) / Fold change /veh FAM26E (11764081_at) / RFU ISYNA1 (11749810_s_at) / Fold change /veh ISYNA1 (11749810_s_at) / RFU ACY1 (11761880_at) / Fold change /veh ACY1 (11761880_at) / RFU 11764098_at / Fold change /veh 11764098_at / RFU SAMD14 (11745864_x_at) / Fold change /veh SAMD14 (11745864_x_at) / RFU NPB (11741838_a_at) / Fold change /veh NPB (11741838_a_at) / RFU TMPRSS6 (11731388_a_at) / Fold change /veh TMPRSS6 (11731388_a_at) / RFU KRTAP10-2 (11738614_at) / Fold change /veh KRTAP10-2 (11738614_at) / RFU ARHGAP8 /// PRR5-ARHGAP8 (11727945_x_at) / Fold change /veh ARHGAP8 /// PRR5-ARHGAP8 (11727945_x_at) / RFU KRTAP5-7 /// NADSYN1 (11734609_at) / Fold change /veh KRTAP5-7 /// NADSYN1 (11734609_at) / RFU RASL12 (11751679_a_at) / Fold change /veh RASL12 (11751679_a_at) / RFU CDKN2B (11736163_a_at) / Fold change /veh CDKN2B (11736163_a_at) / RFU PRF1 (11729649_at) / Fold change /veh PRF1 (11729649_at) / RFU, ZNF638 /// ZNF638-IT1 / Fold change vs veh, ZNF638 /// ZNF638-IT1 / RFU, PANK3 / Fold change vs veh, PANK3 / RFU, SH3YL1 / Fold change vs veh, SH3YL1 / RFU, ZEB2 / Fold change vs veh, ZEB2 / RFU, NRIP1 / Fold change vs veh, NRIP1 / RFU, PTTG1IP / Fold change vs veh, PTTG1IP / RFU, CAPN2 / Fold change vs veh, CAPN2 / RFU, MED14 / Fold change vs veh, MED14 / RFU, SNORA58 / Fold change vs veh, SNORA58 / RFU, C1orf63 / Fold change vs veh, C1orf63 / RFU, LRRFIP1 / Fold change vs veh, LRRFIP1 / RFU, NDUFAF7 / Fold change vs veh, NDUFAF7 / RFU, SLC12A2 / Fold change vs veh, SLC12A2 / RFU, IBTK / Fold change vs veh, IBTK / RFU, ESF1 / Fold change vs veh, ESF1 / Fold change vs veh, TMEM50B / RFU, TAOK1 / Fold change vs veh, TAOK1 / RFU, ACBD3 / Fold change vs veh, ACBD3 / RFU, TMA16 / Fold change vs veh, TMA16 / RFU, RWDD3 / Fold change vs veh, RWDD3 / RFU, BCAT1 / Fold change vs veh, BCAT1 / RFU, EDEM3 / Fold change vs veh, EDEM3 / RFU, TMEM33 / Fold change vs veh, TMEM33 / RFU, WDR75 / Fold change vs veh, WDR75 / RFU, AHCTF1 / Fold change vs veh, AHCTF1 / RFU, TFRC / Fold change vs veh, TFRC / RFU, ZDHHC17 / Fold change vs veh, ZDHHC17 / RFU, NOM1 / Fold change vs veh, NOM1 / RFU, ARL8B / Fold change vs veh, ARL8B / RFU, ZBTB11 / Fold change vs veh, ZBTB11 / RFU, TAMM41 / Fold change vs veh, TAMM41 / RFU, KIAA1704 /// LOC100996395 / Fold change vs veh, KIAA1704 /// LOC100996395 / RFU, ING1 / Fold change vs veh, ING1 / RFU, TRMT61B / Fold change vs veh, TRMT61B / RFU, FUBP3 / Fold change vs veh, FUBP3 / RFU, TP53 / Fold change vs veh, TP53 / RFU, TNKS2 / Fold change vs veh, TNKS2 / RFU, ZFP14 / Fold change vs veh, ZFP14 / RFU, ACTR2 / Fold change vs veh, ACTR2 / RFU, PPP3R1 / Fold change vs veh, PPP3R1 / RFU, PIK3R1 / Fold change vs veh, PIK3R1 / RFU, HNRNPA1 / Fold change vs veh, HNRNPA1 / RFU, RNF170 / Fold change vs veh, RNF170 / RFU, ZNF28 / Fold change vs veh, ZNF28 / RFU, RNGTT / Fold change vs veh, RNGTT / RFU, OGT / Fold change vs veh, OGT / RFU, BRD1 / Fold change vs veh, BRD1 / RFU, MARS / Fold change vs veh, MARS / RFU, ZNF655 / Fold change vs veh, ZNF655 / RFU, FAHD1 / Fold change vs veh, FAHD1 / RFU, BDP1 / Fold change vs veh, BDP1 / RFU, LRRCC1 / Fold change vs veh, LRRCC1 / RFU, ARID1A / Fold change vs veh, ARID1A / RFU, ZNF146 / Fold change vs veh, ZNF146 / RFU, ZNF330 / Fold change vs veh, ZNF330 / RFU, GPN3 / Fold change vs veh, GPN3 / RFU, C9orf123 / Fold change vs veh, C9orf123 / RFU, N4BP2L2 / Fold change vs veh, N4BP2L2 / RFU, ARFIP1 / Fold change vs veh, ARFIP1 / RFU, FAM179B / Fold change vs veh, FAM179B / RFU, BCL10 / Fold change vs veh, BCL10 / RFU, UHRF1BP1L / Fold change vs veh, UHRF1BP1L / RFU, BET1 / Fold change vs veh, BET1 / RFU, CNOT2 / Fold change vs veh, CNOT2 / RFU, ZNF268 / Fold change vs veh, ZNF268 / Fold change vs veh, ZNF507 / RFU, DGCR2 / Fold change vs veh, DGCR2 / RFU, WDSUB1 / Fold change vs veh, WDSUB1 / Fold change vs veh, HSP90B1 /// MIR3652 / RFU, ADSS / Fold change vs veh, ADSS / RFU, GK / Fold change vs veh, GK / RFU, ZNF148 / Fold change vs veh, ZNF148 / RFU, TAF9 / Fold change vs veh, TAF9 / RFU, SLC1A5 / Fold change vs veh, SLC1A5 / RFU, SLMO2 / Fold change vs veh, SLMO2 / RFU, ABCC4 / Fold change vs veh, ABCC4 / RFU, LOC101060439 /// RAP1B / Fold change vs veh, LOC101060439 /// RAP1B / RFU, RFX7 / Fold change vs veh, RFX7 / RFU, GTPBP10 / Fold change vs veh, GTPBP10 / RFU, CNEP1R1 / Fold change vs veh, CNEP1R1 / RFU, BIVM-ERCC5 /// ERCC5 / Fold change vs veh, BIVM-ERCC5 /// ERCC5 / RFU, ILF3 / Fold change vs veh, ILF3 / RFU 11762660_at / Fold change /veh 11762660_at / RFU VCAN (11757783_s_at) / Fold change /veh VCAN (11757783_s_at) / RFU DDX43 (11728927_at) / Fold change /veh DDX43 (11728927_at) / RFU KRT8 (11758188_x_at) / Fold change /veh KRT8 (11758188_x_at) / RFU NKD1 (11759106_at) / Fold change /veh NKD1 (11759106_at) / RFU SRD5A1 (11742802_a_at) / Fold change /veh SRD5A1 (11742802_a_at) / RFU TPSAB1 /// TPSB2 (11721975_s_at) / Fold change /veh TPSAB1 /// TPSB2 (11721975_s_at) / RFU GSTM3 (11746129_a_at) / Fold change /veh GSTM3 (11746129_a_at) / RFU IL23R (11737362_x_at) / Fold change /veh IL23R (11737362_x_at) / RFU TMEM51 (11727254_a_at) / Fold change /veh TMEM51 (11727254_a_at) / RFU PIWIL2 (11732686_x_at) / Fold change /veh PIWIL2 (11732686_x_at) / RFU ORM1 (11744905_x_at) / Fold change /veh ORM1 (11744905_x_at) / RFU CCDC152 (11743942_at) / Fold change /veh CCDC152 (11743942_at) / RFU ECM1 (11717891_a_at) / Fold change /veh ECM1 (11717891_a_at) / RFU IL23R (11748794_a_at) / Fold change /veh IL23R (11748794_a_at) / RFU TNFAIP8L3 (11732012_x_at) / Fold change /veh TNFAIP8L3 (11732012_x_at) / RFU MBOAT4 (11741988_at) / Fold change /veh MBOAT4 (11741988_at) / RFU 11764193_at / Fold change /veh 11764193_at / RFU TMEM53 (11763286_at) / Fold change /veh TMEM53 (11763286_at) / RFU MAGEB2 (11727129_at) / Fold change /veh MAGEB2 (11727129_at) / RFU TMEM200A (11744735_a_at) / Fold change /veh TMEM200A (11744735_a_at) / RFU CCDC152 (11751479_a_at) / Fold change /veh CCDC152 (11751479_a_at) / RFU FAM211A (11726209_a_at) / Fold change /veh FAM211A (11726209_a_at) / RFU RGS16 (11746705_a_at) / Fold change /veh RGS16 (11746705_a_at) / RFU VCAN (11755009_s_at) / Fold change /veh VCAN (11755009_s_at) / RFU RHOB (11743442_s_at) / Fold change /veh RHOB (11743442_s_at) / RFU RGS16 (11720943_a_at) / Fold change /veh RGS16 (11720943_a_at) / RFU RGS16 (11720944_at) / Fold change /veh RGS16 (11720944_at) / RFU, VPS4B / Fold change vs veh, VPS4B / RFU, CREB1 / Fold change vs veh, CREB1 / RFU, DNAJC13 / Fold change vs veh, DNAJC13 / RFU, GNAQ / Fold change vs veh, GNAQ / RFU, CDK5R1 / Fold change vs veh, CDK5R1 / RFU, ZRANB3 / Fold change vs veh, ZRANB3 / RFU, CUL4A / Fold change vs veh, CUL4A / RFU, CCNY / Fold change vs veh, CCNY / RFU, UFL1 / Fold change vs veh, UFL1 / RFU, COG3 / Fold change vs veh, COG3 / RFU, DIAPH2 / Fold change vs veh, DIAPH2 / RFU, SKA2 / Fold change vs veh, SKA2 / RFU, AFF3 / Fold change vs veh, AFF3 / RFU, LMF1 / Fold change vs veh, LMF1 / RFU, IPO11 / Fold change vs veh, IPO11 / RFU, DFFB / Fold change vs veh, DFFB / RFU, FOXP1 / Fold change vs veh, FOXP1 / RFU, CARD8 / Fold change vs veh, CARD8 / RFU, STRN3 / Fold change vs veh, STRN3 / RFU, ADK / Fold change vs veh, ADK / RFU, RASSF2 / Fold change vs veh, RASSF2 / RFU, WIPF1 / Fold change vs veh, WIPF1 / RFU, LARP1B / Fold change vs veh, LARP1B / RFU, RASA1 / Fold change vs veh, RASA1 / RFU, RB1 / Fold change vs veh, RB1 / RFU, PPFIA1 / Fold change vs veh, PPFIA1 / RFU, MAT2A / Fold change vs veh, MAT2A / RFU, CCT5 / Fold change vs veh, CCT5 / RFU, WDR92 / Fold change vs veh, WDR92 / RFU, CUX1 / Fold change vs veh, CUX1 / RFU, TTC7A / Fold change vs veh, TTC7A / RFU, TMEM135 / Fold change vs veh, TMEM135 / RFU, DEPTOR / Fold change vs veh, DEPTOR / RFU, CPM / Fold change vs veh, CPM / RFU, DNAJB6 / Fold change vs veh, DNAJB6 / RFU, CACNA2D3 / Fold change vs veh, CACNA2D3 / RFU, DTX4 / Fold change vs veh, DTX4 / RFU, TFCP2 / Fold change vs veh, TFCP2 / RFU, GMCL1 /// GMCL1P1 / Fold change vs veh, GMCL1 /// GMCL1P1 / RFU, AEBP2 / Fold change vs veh, AEBP2 / RFU, SNHG1 /// SNORD22 /// SNORD25 /// SNORD26 /// SNORD27 /// SNORD28 /// SNORD29 /// SNORD31 / Fold change vs veh, SNHG1 /// SNORD22 /// SNORD25 /// SNORD26 /// SNORD27 /// SNORD28 /// SNORD29 /// SNORD31 / Fold change (Aza/veh), C12orf56 (ProbeSet 11735607_a_at) / Fold change (ACY-1035/veh), C12orf56 (ProbeSet 11735607_a_at) / Fold change (Aza/veh), FGFR1OP (ProbeSet 11751329_s_at) / Fold change (ACY-1035/veh), FGFR1OP (ProbeSet 11751329_s_at) / Fold change (Aza/veh), VPS36 (ProbeSet 11739960_a_at) / Fold change (ACY-1035/veh), VPS36 (ProbeSet 11739960_a_at) / RFU SYPL1 (11715823_x_at) / Fold change /veh SYPL1 (11715823_x_at) / RFU IGFBP7 (11715501_s_at) / Fold change /veh IGFBP7 (11715501_s_at) / RFU REEP3 (11722064_at) / Fold change /veh REEP3 (11722064_at) / RFU IGLL1 (11728026_x_at) / Fold change /veh IGLL1 (11728026_x_at): dose or concentration left out as unconfirmed. The settings on record: ProbeSet 11719632_a_at; LIST B.

`Nc1ncn([C@@H]2O[C@H](CO)[C@@H](O)[C@H]2O)c(=O)n1` [azacitidine]: the “RFU, ABCC4” value is given as 39.11 RFU.

The record behind these values is PMC5218480 (PLoS ONE, 2017).
